Drawing on patent publication US12637428B2, “Isoquinoline derivatives as SIK2 inhibitors” (Cancer Research Technology Limited, priority 2019, dated 2026), this text covers Ki for 21 molecules.

Format in all cases: biochemical
The target in one experiment is T1, Abl (Homo sapiens, UniProt P00519).
T1 construct: purchased Life Technologies
In words: Abl kinase assay, IMAP fluorescence polarization. Conditions: 50 or 100 μM ATP, average. The gist of the method:
(§1)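 Dose-response over 0.00005-1 μM compound in 20 mM Tris pH 7.2 containing 4 mM MgCl2, 0.2% BSA and 2 mM DTT, with 50 or 100 μM ATP and 100 nM FAM-labelled peptide. Kinase 0.6-13 nM, 60 min at room temperature; IMAP FP readout, inhibition normalized to no-inhibitor and no-enzyme controls.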
(In fluorescence polarisation assays a small probe gives low polarisation when free and higher when bound to something large.)

In the next experiment the target is T2, Src (Homo sapiens, UniProt P12931).
T2 construct: purchased Life Technologies
In words: Src kinase assay, IMAP fluorescence polarization. The conditions noted are these: 50 or 100 μM ATP, average. Put shortly:
as §1

A further experiment has as its target T3, SIK1 (Homo sapiens, UniProt P57059).
T3 construct: purchased Life Technologies
In words: SIK1 kinase assay, IMAP fluorescence polarization. Conditions: 50 or 100 μM ATP, average. Put shortly:
as §1

The next experiment deals with T4, SIK3 (Homo sapiens, UniProt Q9Y2K2).
T4 construct: purchased Life Technologies
In words: SIK3 kinase assay, IMAP fluorescence polarization. Conditions: 50 or 100 μM ATP, average. The gist of the method:
as §1

Another experiment concerns the target T5, EPHA2 (Homo sapiens, UniProt P29317).
T5 construct: purchased Life Technologies
In words: EPHA2 kinase assay, IMAP fluorescence polarization. The conditions noted are these: 50 or 100 μM ATP, Tris pH 8.5, average.

The target of the next experiment is T6, SIK2 (Homo sapiens, UniProt Q9H0K1).
T6 construct: purchased Life Technologies
In words: SIK2 kinase assay, IMAP fluorescence polarization. Conditions: 50 or 100 μM ATP, average. Put shortly:
as §1

T4 sequence (Q9Y2K2 whole entry): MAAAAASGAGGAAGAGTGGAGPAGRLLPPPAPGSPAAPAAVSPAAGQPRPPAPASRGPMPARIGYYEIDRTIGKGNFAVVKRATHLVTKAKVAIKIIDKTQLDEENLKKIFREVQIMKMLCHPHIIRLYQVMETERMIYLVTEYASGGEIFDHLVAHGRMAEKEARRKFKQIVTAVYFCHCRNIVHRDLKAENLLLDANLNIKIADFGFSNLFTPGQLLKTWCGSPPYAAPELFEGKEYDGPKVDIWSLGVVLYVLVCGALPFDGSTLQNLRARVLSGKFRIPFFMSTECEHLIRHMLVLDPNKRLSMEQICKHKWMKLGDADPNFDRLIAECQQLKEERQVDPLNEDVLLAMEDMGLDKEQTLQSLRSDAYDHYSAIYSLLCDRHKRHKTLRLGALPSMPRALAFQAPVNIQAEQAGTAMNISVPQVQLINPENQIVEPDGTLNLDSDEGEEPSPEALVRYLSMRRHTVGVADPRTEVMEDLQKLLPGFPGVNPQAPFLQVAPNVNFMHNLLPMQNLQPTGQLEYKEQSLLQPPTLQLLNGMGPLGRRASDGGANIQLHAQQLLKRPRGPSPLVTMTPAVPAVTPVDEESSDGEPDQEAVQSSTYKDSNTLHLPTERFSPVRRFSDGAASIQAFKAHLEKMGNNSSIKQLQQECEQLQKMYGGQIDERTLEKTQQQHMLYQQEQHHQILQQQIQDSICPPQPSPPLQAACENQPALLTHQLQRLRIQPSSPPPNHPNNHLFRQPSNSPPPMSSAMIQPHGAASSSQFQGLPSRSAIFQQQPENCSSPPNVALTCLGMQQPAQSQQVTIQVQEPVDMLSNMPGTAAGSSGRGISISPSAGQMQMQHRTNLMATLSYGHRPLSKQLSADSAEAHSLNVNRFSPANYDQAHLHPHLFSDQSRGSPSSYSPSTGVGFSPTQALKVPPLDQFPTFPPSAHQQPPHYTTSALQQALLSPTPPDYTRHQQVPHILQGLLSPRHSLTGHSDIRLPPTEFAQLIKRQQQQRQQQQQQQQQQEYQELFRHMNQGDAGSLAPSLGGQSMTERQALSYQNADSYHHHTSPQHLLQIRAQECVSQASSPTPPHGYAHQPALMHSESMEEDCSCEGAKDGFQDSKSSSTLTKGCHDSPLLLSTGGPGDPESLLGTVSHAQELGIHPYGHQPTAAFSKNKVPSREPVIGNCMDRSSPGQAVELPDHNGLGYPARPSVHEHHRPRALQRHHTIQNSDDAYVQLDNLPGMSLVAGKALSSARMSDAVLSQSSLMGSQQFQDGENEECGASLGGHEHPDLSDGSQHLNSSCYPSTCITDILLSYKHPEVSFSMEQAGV
T1 sequence (P00519 whole entry): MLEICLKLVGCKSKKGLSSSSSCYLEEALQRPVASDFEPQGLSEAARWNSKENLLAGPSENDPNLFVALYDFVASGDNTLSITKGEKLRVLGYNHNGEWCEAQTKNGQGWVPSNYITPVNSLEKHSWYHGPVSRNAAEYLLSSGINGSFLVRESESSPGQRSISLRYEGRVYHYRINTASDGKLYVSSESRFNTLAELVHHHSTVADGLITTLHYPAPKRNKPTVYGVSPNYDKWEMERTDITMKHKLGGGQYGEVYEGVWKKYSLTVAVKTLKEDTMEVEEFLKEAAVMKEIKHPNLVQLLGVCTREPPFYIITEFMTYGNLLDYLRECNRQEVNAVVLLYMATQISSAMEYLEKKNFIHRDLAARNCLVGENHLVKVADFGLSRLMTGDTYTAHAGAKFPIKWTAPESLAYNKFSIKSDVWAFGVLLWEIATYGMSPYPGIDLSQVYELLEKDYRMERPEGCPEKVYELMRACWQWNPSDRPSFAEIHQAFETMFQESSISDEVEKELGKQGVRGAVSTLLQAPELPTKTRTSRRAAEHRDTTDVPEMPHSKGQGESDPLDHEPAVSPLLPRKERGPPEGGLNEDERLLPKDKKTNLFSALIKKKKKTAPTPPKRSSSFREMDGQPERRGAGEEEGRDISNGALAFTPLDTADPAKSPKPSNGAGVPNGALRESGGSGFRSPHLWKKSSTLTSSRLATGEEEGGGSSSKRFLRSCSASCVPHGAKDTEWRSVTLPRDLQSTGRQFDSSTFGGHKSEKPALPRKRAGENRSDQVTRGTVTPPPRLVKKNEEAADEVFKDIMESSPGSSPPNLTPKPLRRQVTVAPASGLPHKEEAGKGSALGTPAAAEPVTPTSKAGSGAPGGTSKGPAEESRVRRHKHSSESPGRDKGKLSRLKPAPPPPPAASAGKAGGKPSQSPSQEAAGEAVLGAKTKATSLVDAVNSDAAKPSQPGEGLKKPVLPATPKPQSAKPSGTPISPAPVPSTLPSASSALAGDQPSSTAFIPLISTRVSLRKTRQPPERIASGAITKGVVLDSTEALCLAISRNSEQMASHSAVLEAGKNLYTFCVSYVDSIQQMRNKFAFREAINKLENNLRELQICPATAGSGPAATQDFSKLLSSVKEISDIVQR
T2 sequence (P12931 whole entry): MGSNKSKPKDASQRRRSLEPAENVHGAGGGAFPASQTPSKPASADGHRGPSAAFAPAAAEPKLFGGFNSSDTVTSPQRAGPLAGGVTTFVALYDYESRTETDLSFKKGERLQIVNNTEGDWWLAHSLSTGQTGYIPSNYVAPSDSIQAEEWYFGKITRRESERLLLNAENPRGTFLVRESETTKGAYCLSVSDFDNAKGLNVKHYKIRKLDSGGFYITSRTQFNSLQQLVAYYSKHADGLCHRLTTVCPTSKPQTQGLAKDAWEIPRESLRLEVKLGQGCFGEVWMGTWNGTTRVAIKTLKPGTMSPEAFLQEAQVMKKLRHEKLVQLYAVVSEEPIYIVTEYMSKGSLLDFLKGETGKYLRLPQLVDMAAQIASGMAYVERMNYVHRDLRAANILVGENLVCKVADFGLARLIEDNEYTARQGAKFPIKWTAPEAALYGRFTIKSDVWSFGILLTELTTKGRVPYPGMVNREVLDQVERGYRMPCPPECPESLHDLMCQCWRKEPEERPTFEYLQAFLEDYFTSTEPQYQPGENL
T6 sequence (Q9H0K1 whole entry): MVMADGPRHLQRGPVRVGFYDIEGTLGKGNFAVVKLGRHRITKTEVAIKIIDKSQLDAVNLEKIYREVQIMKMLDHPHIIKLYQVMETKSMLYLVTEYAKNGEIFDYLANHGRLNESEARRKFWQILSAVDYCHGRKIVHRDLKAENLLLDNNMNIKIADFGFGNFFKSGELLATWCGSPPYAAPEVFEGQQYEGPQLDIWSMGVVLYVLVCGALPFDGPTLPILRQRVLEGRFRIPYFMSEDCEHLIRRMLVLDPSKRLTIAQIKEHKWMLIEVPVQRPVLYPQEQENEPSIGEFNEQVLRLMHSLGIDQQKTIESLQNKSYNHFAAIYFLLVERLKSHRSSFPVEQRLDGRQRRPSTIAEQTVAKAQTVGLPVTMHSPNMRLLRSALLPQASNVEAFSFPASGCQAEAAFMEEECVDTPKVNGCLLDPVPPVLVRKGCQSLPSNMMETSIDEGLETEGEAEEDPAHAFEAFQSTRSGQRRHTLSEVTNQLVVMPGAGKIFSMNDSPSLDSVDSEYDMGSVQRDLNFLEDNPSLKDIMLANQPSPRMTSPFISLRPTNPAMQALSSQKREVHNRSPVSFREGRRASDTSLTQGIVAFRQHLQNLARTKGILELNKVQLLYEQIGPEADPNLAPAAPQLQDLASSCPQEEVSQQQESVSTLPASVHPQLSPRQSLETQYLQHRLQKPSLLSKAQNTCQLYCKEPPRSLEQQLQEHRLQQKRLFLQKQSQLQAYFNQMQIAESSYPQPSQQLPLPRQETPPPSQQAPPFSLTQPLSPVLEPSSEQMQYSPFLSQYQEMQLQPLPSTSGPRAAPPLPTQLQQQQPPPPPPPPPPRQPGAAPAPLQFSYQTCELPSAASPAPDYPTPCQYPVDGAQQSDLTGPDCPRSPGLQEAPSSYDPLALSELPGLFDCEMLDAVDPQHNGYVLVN
T5 sequence (P29317 24-976): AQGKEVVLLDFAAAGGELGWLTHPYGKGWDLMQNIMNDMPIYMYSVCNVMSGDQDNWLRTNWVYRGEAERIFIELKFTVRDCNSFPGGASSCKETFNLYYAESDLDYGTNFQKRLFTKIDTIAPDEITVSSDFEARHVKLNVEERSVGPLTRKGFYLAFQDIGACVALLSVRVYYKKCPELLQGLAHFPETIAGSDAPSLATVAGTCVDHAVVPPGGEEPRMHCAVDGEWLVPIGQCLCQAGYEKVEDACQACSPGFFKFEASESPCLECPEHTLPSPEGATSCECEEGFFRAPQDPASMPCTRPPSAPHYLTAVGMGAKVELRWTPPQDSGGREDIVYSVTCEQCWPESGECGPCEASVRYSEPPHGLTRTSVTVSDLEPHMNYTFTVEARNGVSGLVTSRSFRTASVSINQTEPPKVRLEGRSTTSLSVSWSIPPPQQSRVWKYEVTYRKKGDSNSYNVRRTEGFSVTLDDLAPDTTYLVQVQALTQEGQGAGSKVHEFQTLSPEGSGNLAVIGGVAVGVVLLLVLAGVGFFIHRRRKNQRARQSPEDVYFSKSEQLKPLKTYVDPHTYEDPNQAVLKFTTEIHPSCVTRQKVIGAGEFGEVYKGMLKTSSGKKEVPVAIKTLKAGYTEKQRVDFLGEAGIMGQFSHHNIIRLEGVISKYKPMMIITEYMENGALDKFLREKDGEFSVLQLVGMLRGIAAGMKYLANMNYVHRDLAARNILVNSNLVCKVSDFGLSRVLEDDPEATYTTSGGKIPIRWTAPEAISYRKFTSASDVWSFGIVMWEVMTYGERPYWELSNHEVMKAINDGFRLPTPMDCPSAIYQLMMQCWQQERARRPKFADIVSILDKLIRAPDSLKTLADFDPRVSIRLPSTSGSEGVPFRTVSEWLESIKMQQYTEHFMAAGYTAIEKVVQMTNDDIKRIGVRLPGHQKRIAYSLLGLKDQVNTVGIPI

In the case of `CNC1CCN(c2cc(-c3c(C)cccc3F)cc3cnc(N)cc23)CC1` [Example 15, 7-(2-fluoro-6-methyl-phenyl)-5-[4-(methylamino)-1-piperidyl]isoquinolin-3-amine], the Ki – broadly, a dissociation constant, usually derived from enzyme kinetics or from competition with a known ligand – on Abl amounted to 19.4 nM; at Src, 396 nM; at SIK1, 1.01 nM; on SIK3, 1.94 nM; on EPHA2, 156 nM; at SIK2, 0.155 nM.

In the case of `Cc1cccc(Cl)c1-c1cc(NC2CCN(C)CC2)c2nc(N)ncc2c1` [Example 129, 6-(2-chloro-6-methyl-phenyl)-N8-(1-methyl-4-piperidyl)quinazoline-2,8-diamine], the Ki was 17.4 nM on Abl; 19.3 nM at Src; 0.176 nM on SIK1; 0.339 nM at SIK3; 18.1 nM on EPHA2; 0.0784 nM at SIK2.

Regarding `CNC[C@H]1CCCN(c2cc(-c3c(C)cccc3F)cc3cnc(N)cc23)C1` [Example 21, 7-(2-fluoro-6-methyl-phenyl)-5-[(3R)-3-(methylamino-methyl)-1-piperidyl]isoquinolin-3-amine], the inhibition constant (Ki) at Abl was found to be 10.5 nM; on Src, 50.4 nM; on SIK1, 0.594 nM; on SIK3, 9.36 nM; on EPHA2, 41.5 nM; at SIK2 it was 0.274 nM.

Consider `Cc1cccc(F)c1-c1cc(NC[C@@H]2CCCNC2)c2cc(N)ncc2c1` [Example 10, 7-(2-fluoro-6-methyl-phenyl)-N5-[[(3R)-3-piperidyl]methyl]isoquinoline-3,5-diamine], for which the Ki on Abl is 4.83 nM; at Src, 32.1 nM; on SIK1, 0.535 nM; at SIK3 it was 0.966 nM; at EPHA2, 47.6 nM; at SIK2, 0.101 nM.

In the case of `CNc1cc2c(N3CCC[C@H](N(C)C)C3)cc(-c3c(C)cccc3F)cc2cn1` [Example 83, 5-[(3S)-3-(dimethylamino)-1-piperidyl]-7-(2-fluoro-6-methyl-phenyl)-N-methyl-isoquinolin-3-amine], the Ki on Abl is 9.38 nM; at Src, 97.8 nM; on SIK1, 0.55 nM; on SIK3, 7.35 nM; at EPHA2, greater than 1000 nM; at SIK2 it was 0.316 nM.

For the molecule `Cc1cccc(F)c1-c1cc2cnc(N)cc2c(NC2CCN(C)CC2)c1F` [Example 135, 6-Fluoro-7-(2-fluoro-6-methyl-phenyl)-N5-(1-methyl-4-piperidyl)isoquinoline-3,5-diamine], the Ki is 7.99 nM on Abl; 65.3 nM on Src; 0.361 nM on SIK1; 0.312 nM on SIK3; 30.7 nM on EPHA2; 0.0936 nM at SIK2.

Take `Cc1cccc(F)c1-c1cc(N2CCC(O)CC2)c2cc(N)ncc2c1` [Example 104, 1-[3-Amino-7-(2-fluoro-6-methyl-phenyl)-5-isoquinolyl]piperidin-4-ol]: the Ki on Abl was 45.4 nM; on Src, greater than 1000 nM; at SIK1, 43.4 nM; at SIK3 it was 176 nM; at EPHA2, greater than 1000 nM; at SIK2 it was 4.37 nM.

Turning to `Cc1cccc(F)c1-c1cc(N[C@H]2CCNC2)c2cc(N)ncc2c1` [Example 7, 7-(2-fluoro-6-methyl-phenyl)-N5-[(3S)-pyrrolidin-3-yl]isoquinoline-3,5-diamine], the Ki on Abl was 5.55 nM; at Src it was 193 nM; at SIK1, 0.414 nM; on SIK3, 0.325 nM; on EPHA2, 199 nM; at SIK2, 0.0496 nM.

Turning to `Cc1cccc(Cl)c1-c1cc(NC2CCN(C)CC2)c2ncncc2c1` [Example 130, 6-(2-chloro-6-methyl-phenyl)-N-(1-methyl-4-piperidyl)quinazolin-8-amine], the Ki was greater than 10000 nM at Abl; 549 nM on Src; 5.53 nM on SIK1; 17.2 nM on SIK3; 85.3 nM at EPHA2; 2.87 nM at SIK2.

As for `Cc1cccc(F)c1-c1cc(NC2CCN(C)CC2)c2ccncc2c1` [Example 103, 7-(2-Fluoro-6-methyl-phenyl)-N-(1-methyl-4-piperidyl)isoquinolin-5-amine], the Ki came to 97.2 nM on Abl; 143 nM on Src; 2.21 nM at SIK1; 5.01 nM on SIK3; 189 nM on EPHA2; 0.296 nM on SIK2.

Regarding `Cc1cccc(Cl)c1-c1cc(NC2CCNCC2)c2ccncc2c1` [Example 50, 7-(2-chloro-6-methyl-phenyl)-N-(4-piperidyl) isoquinolin-5-amine], the Ki at Abl came out at 66.1 nM; at Src it was 98 nM; on SIK1, 1.27 nM; on SIK3, 3.23 nM; at EPHA2, 18.9 nM; on SIK2, 0.983 nM.

On to `Cc1cccc(F)c1-c1cc(OC2CCN(C)CC2)c2cc(N)ncc2c1` [Example 101, 7-(2-Fluoro-6-methyl-phenyl)-5-[(1-methyl-4-piperidyl)oxy]isoquinolin-3-amine], for which the Ki on Abl was 59.1 nM; at Src it was 134 nM; at SIK1, 0.66 nM; on SIK3 it was 0.915 nM; on EPHA2, greater than 100 nM; at SIK2, 0.0539 nM.

As for `Cc1cccc(F)c1-c1cc(NC[C@H]2CCCN2C)c2cc(N)ncc2c1` [Example 73, 7-(2-fluoro-6-methyl-phenyl)-N5-[[(2R)-1-methylpyrrolidin-2-yl]methyl] isoquinoline-3,5-diamine], the Ki on Abl was found to be 6.45 nM; at Src, 98.1 nM; at SIK1 it was 0.498 nM; at SIK3, 0.528 nM; at EPHA2, 251 nM; on SIK2, 0.0693 nM.

Consider `Cc1cccc(F)c1-c1cc(NC2CCN(C)CC2)c2ccncc2n1` [Example 122, 2-(2-Fluoro-6-methyl-phenyl)-N-(1-methyl-4-piperidyl)-1,7-naphthyridin-4-amine], for which the Ki on Abl was greater than 10000 nM; on Src, greater than 10000 nM; at SIK1, 266 nM; on SIK3 it was 531 nM; on EPHA2, greater than 10000 nM; at SIK2, 121 nM.

As to `Cc1cccc(F)c1-c1cc(NC[C@H]2CCCCN2C)c2cc(N)ncc2c1` [Example 56, 7-(2-fluoro-6-methyl-phenyl)-N5-[[(2R)-1-methyl-2-piperidyl]methyl] isoquinoline-3,5-diamine], the Ki turned out to be 48 nM on Abl; 229 nM on Src; 1.06 nM on SIK1; 6.3 nM at SIK3; 238 nM at EPHA2; 0.578 nM on SIK2.

`CNc1cc2c(NC3CCNCC3)cc(-c3c(C)cccc3F)cc2cn1` [Example 27, 7-(2-Fluoro-6-methyl-phenyl)-N3-methyl-N5-(4-piperidyl)isoquinoline-3,5-diamine]: the Ki is 22.9 nM at Abl; 218 nM on Src; 0.429 nM at SIK1; 0.349 nM on SIK3; 216 nM at EPHA2; 0.0748 nM at SIK2.

Regarding `Cc1cccc(F)c1-c1cc(NCC2CCN(C)CC2)c2cc(N)ncc2c1` [Example 71, 7-(2-fluoro-6-methyl-phenyl)-N5-[(1-methyl-4-piperidyl)methyl] isoquinoline-3,5-diamine], the Ki was 15.6 nM at Abl; 149 nM on Src; 1.17 nM at SIK1; 5.67 nM at SIK3; greater than 1000 nM at EPHA2; 0.486 nM on SIK2.

As to `CNC[C@@H]1CCCN(c2cc(-c3c(C)cccc3F)cc3cnc(N)cc23)C1` [Example 22, 7-(2-fluoro-6-methyl-phenyl)-5-[(3S)-3-(methylamino-methyl)-1-piperidyl]isoquinolin-3-amine], the Ki was 46.6 nM at Abl; 304 nM on Src; 1.67 nM on SIK1; 13.6 nM on SIK3; 227 nM on EPHA2; 0.563 nM on SIK2.

For `Cc1cccc(F)c1-c1cc(N[C@@H]2CCN(C)C2)c2cc(N)ncc2c1` [Example 69, 7-(2-fluoro-6-methyl-phenyl)-N5-[(3R)-1-methylpyrrolidin-3-yl]isoquinoline-3,5-diamine], the Ki at Abl is 5.14 nM; at Src, 35.8 nM; on SIK1 it was 0.3 nM; on SIK3, 0.986 nM; on EPHA2, greater than 1000 nM; at SIK2, 0.0972 nM.

Turning to `CN[C@H]1CCCN(c2cc(-c3c(C)cccc3F)cc3cnc(N)cc23)C1` [Example 18, 7-(2-fluoro-6-methyl-phenyl)-5-[(3S)-3-(methylamino)-1-piperidyl]isoquinolin-3-amine], the Ki on Abl turned out to be 1.88 nM; at Src, 53.4 nM; at SIK1, 0.656 nM; on SIK3, 7.09 nM; on EPHA2, 100 nM; on SIK2 it was 0.196 nM.

As to `Cc1cccc(F)c1-c1cc(NC[C@H]2CCNC2)c2cc(N)ncc2c1` [Example 9, 7-(2-fluoro-6-methyl-phenyl)-N5-[[(3S)-pyrrolidin-3-yl]methyl]isoquinoline-3,5-diamine], the Ki on Abl was determined as 0.687 nM; on Src, 217 nM; on SIK1, 0.316 nM; on SIK3 it was 0.269 nM; at EPHA2, 166 nM; on SIK2 it was 0.0411 nM.
